From publication PMC5504357, “Antifungal Potential of Copper(II), Manganese(II) and Silver(I) 1,10-Phenanthroline Chelates Against Multidrug-Resistant Fungal Species Forming the Candida haemulonii Complex: Impact on the Planktonic and Biofilm Lifestyles” (Frontiers in Microbiology, 2017)
Like-named read-outs stand apart in the source and are kept apart here.

How the values were obtained:
C. haemulonii complex = test: Planktonic growth, overall across all nine isolates; format: cell-based, Candida haemulonii complex; details: geometric mean across all nine strains; for MIC: in μM, read-out: Overall GM-MIC
Source text: (§1) Three clinical isolates of each species that form the C. haemulonii complex were used in this study: C. haemulonii (LIPCh4 from finger nail, LIPCh7 from toe nail, and LIPCh12 from blood), C. duobushaemulonii (LIPCh1 from finger nail, LIPCh6 from toe nail, and LIPCh8 from blood) and C. haemulonii var. vulnera (LIPCh5 from toe nail, LIPCh9 from urine, and LIPCh11 from blood) (Ramos et al., [2015]). The fungal isolates were identified by the automatized system VITEK® 2 and then characterized by ITS1-5.8S-ITS2 gene sequencing (Ramos et al., [2015]). Fungal cells were cultured in Sabouraud-dextrose medium under constant agitation (130 rpm) for 48 h at 37°C. Human lung adenocarcinoma A549 cells were maintained in culture flasks containing DMEM medium supplemented with 10% fetal bovine serum at 37°C in an atmosphere of 5% CO2.
(§2) Susceptibility profile assays were performed in accordance with the broth microdilution protocol described in the document M27-A3 published by the Clinical and Laboratory Standards Institutes (CLSI, [2008]). Samples of the test chelates were dissolved in DMSO (500 μL) and then serially diluted in a 96-well plate containing RPMI 1640 (Sigma-Aldrich, USA) to give the concentration range of 0.0625-32 mg/L. Aqueous solutions of the metal-free phen ligand and the simple metal salts, MnCl2, CuCl2, and AgNO3, were also screened over the same concentration range. Caspofungin (Sigma-Aldrich) was used as a classical antifungal agent able to block the growth of all clinical isolates of C. haemulonii species as previously reported by our research group (Ramos et al., [2015]). Water dilutions containing DMSO concentrations corresponding to those used to prepare the drug solutions were assessed in parallel. Untreated and compound-treated fungal cells were incubated at 37°C for 48 h and the minimal inhibitory concentration (MIC) was established as the lowest compound concentration where no cellular growth could be detected by visual inspection in accordance to the CLSI recommendation. The geometric mean of the MIC values (GM-MIC) of each compound against all the fungal isolates was calculated using the software, Microsoft Office Excel 2013.

Candida duobushaemulonii [1] = test: Biofilm-growing cells, XTT assay, bMIC; format: cell-based; details: for GM-bMIC: geometric mean, C. duobushaemulonii isolates; for bMIC: mature biofilm, 48 h, 50% inhibition of metabolic activity
Experimental: (§3) The effect of the compounds on biofilm-growing cells was determined using the previously described microtiter-based technique (Ramage et al., [2001]). The fungi (10^6 yeast cells) were incubated for 48 h at 37°C in 96-well polystyrene microtiter plates (Corning®, Corning Incorporated, USA) containing Sabouraud-dextrose broth to accommodate biofilm formation. Following biofilm formation, the culture medium was aspirated and non-adherent cells removed by thoroughly washing the wells three times with sterile PBS (0.15 M NaCl, 0.01 M phosphate buffer, pH 7.2). Afterwards, the compounds, at the same concentrations used in the planktonic assays, were added to the wells, and the plates were incubated for further 48 h at 37°C. The metabolic activity was then evaluated using a colorimetric assay that measures the metabolic reduction of 2,3-bis (2-methoxy-4-nitro-5-sulfophenyl)-5-[(phenylamino) carbonyl]-2H-tetrazolium hydroxide (XTT; Sigma-Aldrich) to a water-soluble, brown formazan product (Peeters et al., [2008]). The biofilm MIC (bMIC) for each compound was established as the minimal concentration capable of inhibiting 50% of metabolic activity when compared to compound-free wells (Ziccardi et al., [2015]).

Candida haemulonii [2] = test: Biofilm-growing cells, XTT assay, bMIC; format: cell-based; details: for GM-bMIC: geometric mean, C. haemulonii isolates, values marked * do not include LIP Ch4 (>512); for bMIC: mature biofilm, 48 h, 50% inhibition of metabolic activity
Experimental: as §3

[3] = tested on: Candida haemulonii var. vulnera; test: Biofilm-growing cells, XTT assay, bMIC; format: cell-based; details: for GM-bMIC: geometric mean, C. haemulonii var. vulnera isolates; for bMIC: mature biofilm, 48 h, 50% inhibition of metabolic activity
Experimental: as §3

[4] = tested on: Candida haemulonii complex; test: Biofilm-growing cells, overall across isolates; format: cell-based; details: geometric mean across strains, values marked * do not include LIP Ch4 (>512)
Experimental: as §3

A549 cells = test: Mammalian cell toxicity (MTT assay) and selectivity index; format: cell-based, Human
Source text: as §1
The cytotoxicity was evaluated using the MTT [3-(4,5-dimethylthiazol-2-yl)-2,5-diphenyl tetrazolium bromide] (Sigma-Aldrich) assay (Mosmann, [1983]). A549 cells (10^4) were seeded into tissue culture plates (TPP, Switzerland) and cultured for 24 h at 37°C in a 5% CO2 in order to obtain cellular confluence. The wells were then washed twice with DMEM to remove non-adherent cells and the test compounds were added (in concentrations ranging from 0.0313 to 512 μg/mL) to plates containing DMEM, followed by a 48 h incubation period under the same conditions mentioned above. The cellular viability was evaluated by adding MTT to each well and incubating the plates in the dark for 3 h, allowing the viable cells containing active mitochondrial dehydrogenase enzymes to metabolize MTT-tetrazolium salt into purple formazan. The formazan crystals were then dissolved in DMSO (100 μL) and the absorbance (450 nm) measured using a Thermomax Molecular Device microplate reader. The concentration capable of reducing cellular viability by 50% (CC50) was calculated, and the selectivity index (SI) determined using the following equation: A549 CC50/C. haemulonii complex GM-MIC.

Candida duobushaemulonii [5] = test: Planktonic growth, broth microdilution (CLSI M27-A3), MIC; format: cell-based; details: for GM-MIC: geometric mean of three C. duobushaemulonii isolates; for MIC: planktonic, 48 h, 37°C
Source text: as §1, §2

Candida haemulonii [6] = test: as above; format: cell-based; details: for GM-MIC: geometric mean of three C. haemulonii isolates; for MIC: planktonic, 48 h, 37°C
Source text: as §1, §2

[7] = tested on: Candida haemulonii var. vulnera; test: as above; format: cell-based; details: for GM-MIC: geometric mean of three C. haemulonii var. vulnera isolates; for MIC: planktonic, 48 h, 37°C
Source text: as §1, §2

SMILES	Overall GM-MIC (C. haemulonii complex) [µg/mL]	MIC (C. haemulonii complex) [µM]	GM-bMIC (Candida duobushaemulonii [1]) [mg/L]	bMIC (Candida duobushaemulonii [1]; isolate LIP Ch1) [mg/L]	bMIC (Candida duobushaemulonii [1]; isolate LIP Ch6) [mg/L]	bMIC (Candida duobushaemulonii [1]; isolate LIP Ch8) [mg/L]	GM-bMIC (Candida haemulonii [2])	bMIC (Candida haemulonii [2]; isolate LIP Ch4) [mg/L]	bMIC (Candida haemulonii [2]; isolate LIP Ch7) [mg/L]	bMIC (Candida haemulonii [2]; isolate LIP Ch14) [mg/L]	GM-bMIC [3] [mg/L]	bMIC ([3]; isolate LIP Ch5) [mg/L]	bMIC ([3]; isolate LIP Ch9) [mg/L]	bMIC ([3]; isolate LIP Ch13) [mg/L]	Overall GM-bMIC ([4]; in μM) [µM]	Overall GM-bMIC [4] [mg/L]	GM-MIC (Candida duobushaemulonii [5]) [µg/mL]	MIC (Candida duobushaemulonii [5]; isolate LIP Ch1) [µg/mL]	MIC (Candida duobushaemulonii [5]; isolate LIP Ch6) [µg/mL]	MIC (Candida duobushaemulonii [5]; isolate LIP Ch8) [µg/mL]	further results
O.O.O.O.O=C1C(=O)c2cccnc2-c2ncccc21.O=C1C(=O)c2cccnc2-c2ncccc21.O=C1C(=O)c2cccnc2-c2ncccc21.[Cu+2].[O-][Cl+3]([O-])([O-])[O-].[O-][Cl+3]([O-])([O-])[O-] [compound 6, [Cu(phendione)3](ClO4)2.4H2O]	9.33	9.65	12.70	16	16	8	50.80 mg/L	256	32	16	32	32	32	32	28.42	27.43	8	8	16	4	A549 (CC50) (A549 cells; MTT, 48 h incubation): 0.68 µg/mL; GM-MIC (Candida haemulonii [6]): 16 µg/mL; MIC (Candida haemulonii [6]; isolate LIP Ch4): 16 µg/mL; MIC (Candida haemulonii [6]; isolate LIP Ch7): 16 µg/mL; MIC (Candida haemulonii [6]; isolate LIP Ch12): 16 µg/mL; GM-MIC [7]: 6.35 µg/mL; MIC ([7]; isolate LIP Ch5): 4 µg/mL; MIC ([7]; isolate LIP Ch9): 8 µg/mL; MIC ([7]; isolate LIP Ch11): 8 µg/mL
O.O.O=C([O-])c1ccccc1C(=O)[O-].[Mn+2].c1cnc2c(c1)ccc1cccnc12 [compound 8, [Mn(ph)(phen)(H2O)2]]	4.67	10.71	10.08	16	8	8	8^* mg/L	>512	4	16	16	32	16	8	25.98	11.31	5.04	8	4	4	A549 (CC50) (A549 cells): 234.51 µg/mL; GM-MIC (Candida haemulonii [6]): 5.04 µg/mL; MIC (Candida haemulonii [6]; isolate LIP Ch4): 8 µg/mL; MIC (Candida haemulonii [6]; isolate LIP Ch7): 4 µg/mL; MIC (Candida haemulonii [6]; isolate LIP Ch12): 4 µg/mL; GM-MIC [7]: 4 µg/mL; MIC ([7]; isolate LIP Ch5): 4 µg/mL; MIC ([7]; isolate LIP Ch9): 4 µg/mL; MIC ([7]; isolate LIP Ch11): 4 µg/mL
O.O.O.O.O.O=C([O-])c1ccccc1C(=O)[O-].[Mn+2].c1cnc2c(c1)ccc1cccnc12.c1cnc2c(c1)ccc1cccnc12 [compound 9, [Mn(ph)(phen)2(H2O)].4H2O]	2	2.98	5.04	16	4	2	25.40 mg/L	512	2	16	6.35	16	4	4	13.93	9.33	2	2	2	2	A549 (CC50) (A549 cells): 259.34 µg/mL; GM-MIC (Candida haemulonii [6]): 2 µg/mL; MIC (Candida haemulonii [6]; isolate LIP Ch4): 2 µg/mL; MIC (Candida haemulonii [6]; isolate LIP Ch7): 2 µg/mL; MIC (Candida haemulonii [6]; isolate LIP Ch12): 2 µg/mL; GM-MIC [7]: 2 µg/mL; MIC ([7]; isolate LIP Ch5): 2 µg/mL; MIC ([7]; isolate LIP Ch9): 2 µg/mL; MIC ([7]; isolate LIP Ch11): 2 µg/mL
